Source: article PMC4997316, “A ruthenium polypyridyl intercalator stalls DNA replication forks, radiosensitizes human cancer cells and is enhanced by Chk1 inhibition” (Scientific Reports, 2016)

Columns and labels:
[1] = test system: HeLa cells; assay: Trypan Blue exclusion assay; type: cell-based, human; details: 40 μM
Experimental: HeLa cells were seeded in 6 well plates at 100,000 cells/well and allowed to proliferate for 24 h. Cell cultures were treated as stated, media containing detached/dead cells were removed and retained, adherent cells washed with PBS and detached with Trypsin. Adherent and detached cells for each sample were combined, concentrated via centrifugation and re-suspended in 0.5 ml PBS containing 0.04% Trypan Blue solution. Trypan Blue-negative and Trypan Blue-positive cells were counted by haemocytometer. A minimum of 200 cells were counted for each sample.

[2] = test system: hSAEC1-KT human epithelial cells; assay: cell viability with or without Chk1 inhibitor CHIR-124, hSAEC1-KT; type: cell-based; details: normal hSAEC1-KT cells, plus CHIR-124 500 nM, 48 h, any concentration of 1
Experimental: (§1) With this in mind, and considering the strong Chk1 activation in response to 1, HeLa cervical cancer cells, which are […][44], were exposed to a combination of 1 plus the Chk1 inhibitor CHIR-124[45] and the impact of co-treatment upon cell viability determined. A non-cytotoxic dose of 500 nM CHIR-124 was used and results were compared to single-agent treatment. […] Minimal enhancement of the anti-proliferative effect of 2 by CHIR-124 was observed (Fig. S15b), in agreement with 2 operating via a Chk1-independent mechanism.
(§2) Figure 5 Concurrent treatment of [Ru(dppz)2(PIP)]^2+ plus the Chk1 inhibitor CHIR-124 potentiates synergistic apoptosis in cancer cells. (a) Viability of HeLa (cervical cancer) or hSAEC1-KT (normal epithelial) cells after incubation with 1 in the absence or presence of Chk1 inhibitor CHIR-124 (500 nM) for 48 h constant exposure. […] (c) Quantification of apoptotic cells for experimental conditions as shown in (b). […] (f) Quantification of γH2AX foci from cells treated as in (e). […] Minimum of 150 cells counted per experiment. […]
(§3) Cells were seeded in 96 well plates at 20,000 cells/well, allowed to proliferate for 24 h before treatment as described in the main text. […] The absorbance at 540 nm was quantified by plate reader (reference wavelength 650 nm). The metabolic activity of the cell population was determined as a percentage of a negative (solvent) control.

[3] = test system: HeLa cervical cancer cells; assay: cell viability with or without Chk1 inhibitor CHIR-124, HeLa; type: cell-based, human; details: plus CHIR-124 500 nM, 48 h constant exposure
Experimental: as §1, §2, §3

[4] = test system: HeLa cells; assay: quantification of apoptotic morphology (pyknosis/karyorrhexis); type: cell-based, human; details: single-agent treatment, 48 h (1 40 μM; CHIR-124 500 nM)
Experimental: as §1
Figure 5 Concurrent treatment of [Ru(dppz)2(PIP)]^2+ plus the Chk1 inhibitor CHIR-124 potentiates synergistic apoptosis in cancer cells. (a) Viability of HeLa (cervical cancer) or hSAEC1-KT (normal epithelial) cells after incubation with 1 in the absence or presence of Chk1 inhibitor CHIR-124 (500 nM) for 48 h constant exposure. (b) Morphological evidence for apoptosis (pyknosis/karyorrhexis, arrows) in HeLa cells treated with 40 μM 1 plus CHIR-124 for 48 h. Scale bars = 20 μm. (c) Quantification of apoptotic cells for experimental conditions as shown in (b). Equivalent results for 2 (40 μM, 48 h) included. Data mean of two independent experiments +/− SD. […] (f) Quantification of γH2AX foci from cells treated as in (e). […] Minimum of 150 cells counted per experiment. […]

[5] = test system: HeLa cells; assay: cell-cycle analysis by PI flow cytometry; type: cell-based, human; details: 40 μM, 24 h
Experimental: Figure 4 [Ru(dppz)2(PIP)]^2+ induces Chk1 checkpoint kinase activation and G1-S cell-cycle arrest. […] See SI for densitometry. (c) Cell-cycle distributions of HeLa cells incubated with DMSO (0.2%), 1 or 2 at the stated concentrations and time. DNA content was quantified using propidium iodide (PI) and analysed by flow cytometry. […] Data mean of three independent experiments +/− SD. […] They are copied as bare numbers, left to right. / The gate numbers in panel c are very small, so 3, 5, 6, 8 and 9 cannot be told apart with certainty. All the values below are best readings. / DMSO: 0.86, 57.4, 22.5, 16.8 uncertain / 1 (40 μM, 3 h): 0.46, 72.7, 13.5, 8.77 uncertain / 1 (40 μM, 8 h): 1.69, 73.2, 15.3, 3.6 uncertain / 1 (40 μM, 24 h): 1.2, 72.9, 15.8, 6.47 uncertain. […] 32.4 is partly overlapped by the peak line.
Cells were washed with PBS and detached using Trypsin. After centrifugation at 1000 rpm for 5 min, cells were fixed in cold 70% ethanol for 30 mins, centrifuged and re-suspended in PBS. Samples were stained using 10 μg/ml propidium iodide (PI) and 200 μg/ml RNAase A for 30 mins before FACS analysis using a Biosciences LSRII Flow Cytometer. A minimum of 10,000 cells were counted for each sample and data were processed using FloJo software. […]

`[Ru+2].c1ccc(-c2nc3c4cccnc4c4ncccc4c3[nH]2)cc1.c1ccc2nc3c4cccnc4c4ncccc4c3nc2c1.c1ccc2nc3c4cccnc4c4ncccc4c3nc2c1` [Complex 1, [Ru(dppz)2(PIP)]^2+] was tested, and the “HeLa cell growth (viable cell numbers)” value ([1]; 24–72 h treatment) was “completely halts HeLa cell growth”, the cytotoxicity ([1]; HeLa, up to 72 h, % total cells, read-out: non-viable (Trypan Blue positive) populations) was < 20% and the “impact on cell health on combination with CHIR-124” value [2] was “no substantial impact on cell health”. For the same compound, the “cell viability on simultaneous treatment with CHIR-124 compared to either agent alone” value [3] was “significant decrease in cell viability” and the “morphological evidence of apoptosis (pyknosis/karyorrhexis)” value [4] was < 5%.

In the case of `Oc1ccc(-c2nc3c4cccnc4c4ncccc4c3[nH]2)cc1.[Ru+2].c1ccc2nc3c4cccnc4c4ncccc4c3nc2c1.c1ccc2nc3c4cccnc4c4ncccc4c3nc2c1` [Complex 2, [Ru(dppz)2(p-HPIP)]^2+], the “change in cell-cycle distribution compared to controls” value [5] is reported as “no change in cell-cycle distribution”.
